Laboratory results taken from US9187458B2, “Cyanoquinoline derivatives” (Tianjin Hemay Bio-Tech Co., LTD., priority 2010, dated 2015).

Experiments:
A431 cells = assay: A431 Cell Growth Inhibition Test (MTT Assay); format: cell-based, human; settings: for IC50 / inhibition at 1 µM: Homo sapiens; for IC50: A-431, 68 h incubation; for inhibition at 1 µM: A-431, 68 h, read-out: Growth Inhibition Ratio (%)
Method in brief: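 Cells seeded at 2500/well in DMEM/F12 with 10% FBS, grown overnight, then exposed to compound for 68 h at 37 °C, 5% CO2. Viability by MTT (0.5 mg/ml, 4 h), DMSO-solubilised, OD 490 nm; IC50 is concentration giving 50% growth inhibition relative to controls.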

Sk-Br-3 cells = assay: Sk-Br-3 Cell Growth Inhibition Test (SRB Assay); format: cell-based; settings: Homo sapiens, 91 h incubation
Experimental: Sk-Br-3 Cell Growth Inhibition Test (SRB Assay)
1. Cell strains: Sk-Br-3 (human breast cancer cell strains);
2. SRB: available from Sigmaaldrich, goods number: S9012, lot number: 047K3751. SRB was reserved at the room temperature. 0.4% (w/v) of working solution was formulated with 1% of glacial acetic acid. The solution was reserved at 4° C.; anti-tumor compounds; DMSO
Culture medium: 90% DMEM+10% FBS;
1. A plate (10 cm) of cells in logarithmic growth phase normally cultured was collected. The culture solution was sucked out. The plate was washed with 5 mL of PBS 1-2 times;
2. PBS was sucked out. […] of 0.25% pancreatin was added to infiltrate the cells for 30 s;
3. The pancreatin was sucked out. The culture plate was placed in an incubator. Digestion was carried out for about 1.5-2 min at 37° C.;
4. 4 mL of complete culture solution was added to the culture plate to stop the digestion. The cells were carefully scoured with micropipette (1 ml) to give a uniform single cell suspension;
5. Cell suspension was counted. The suspension was diluted to 1×10^5/ml. The resulting suspension was developed uniformly on a plate by 10000 cells/100 μl per well. The culture plate was incubated overnight under 5% CO2 at 37° C. In day 2, 100 μl of culture solution comprising a compound was added in each well, and further incubated for 91 h under 5% CO2 at 37° C.
6. The culture solution was sucked out. 100 uL of TCA fixed cells which were diluted to 10% were added to each well. The plate was kept in a refrigerator for 1 h at 4° C.
7. TCA stationary liquid was sucked out. Each well was washed with 150 μL of ddH2O five times;
8. After the stationary liquid was cleansed, the plate was dried in the air at the room temperature;
9. 60 μL of SRB staining solution was added in each well. The well was stained for 15 min at the room temperature;
10. The SRB staining solution was sucked out. Each well was washed with 150 μL of 1% glacial acetic acid five times;
11. After the SRB staining solution was cleansed, the plate was dried in the air at the room temperature;
12. 100 μL of 10 mM Tris was added in each well. The plate was vibrated to dissolve out SRB;
13. OD values were determined at 570 nM.
To: OD values of the starting content of cells when the cells were developed on a plate;
PC: OD values of cells after normal growth in control wells without a compound;
Ti: OD values of cells after growth in test wells with a compound;
NC: Background OD values of blank well without a compound and cells
Therefore: Ratio of cells in test wells to normal wells (% of control cell growth)=(Ti−To)/(PC−To)×100%
Ratio GI50 was concentration of a compound at the point of 50%.
Therefore: Ratio of killed cells to inoculated cells (% of killed cells)=(Ti−To)/(To−NC)×100%
LC50 was concentration point of a compound when half of the starting inoculated concentration was reached.
Concentration of a compound at this point is defined as TGI (total growth inhibition).

Fadu cells = assay: Fadu Cell Growth Inhibition Test (MTT Assay); format: cell-based; settings: Homo sapiens, 72 h incubation
Method in brief: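 Fadu head and neck cancer cells in EMEM + 10% FBS, 6000 cells/well, dosed next day and incubated 72 h at 37 °C, 5% CO2. MTT 0.5 mg/ml for 3 h, DMSO solubilization, OD at 490 nm; inhibition ratio from positive and negative controls, IC50 from fitted curve.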

AsPC-1 cells = assay: AsPC-1 Cell Growth Inhibition Test (MTT Assay); format: cell-based; settings: Homo sapiens, ASPC1, 72 h incubation
Experimental: AsPC-1 Cell Growth Inhibition Test (MTT Assay)
Cell strains: AsPC-1 (human pancreatic cancer cell strains);
1. A plate (10 cm) of cells in logarithmic growth phase normally cultured was collected;
2. The culture solution was sucked out. The plate was washed with 5 ml of PBS 1-2 times;
3. PBS was sucked out. 1.5 ml of 0.25% pancreatin was added to infiltrate the cells for 1 min;
4. The pancreatin was sucked out. The culture plate was placed in an incubator. Digestion was carried out for about 7.5 min at 37° C.;
5. 4.5 ml of complete culture solution was added to the culture plate to stop the digestion. The cells were carefully scoured with micropipette (1 ml) to give a uniform cell suspension. The suspension was implanted into a 96-well cell culture plate by 8000 cells/100 μl per well. The culture plate was incubated overnight under 5% CO2 at 37° C. In day 2, 100 μl of culture solution comprising a compound was added in each well, and further incubated for 72 h under 5% CO2 at 37° C.
6. The culture solution was sucked out;
7. 100 μl of serum-free culture solution containing 0.5 mg/ml MTT was added in each well, and incubated for 3 h;
8. The culture solution was carefully sucked out;
9. 100 μl of DMSO was added in each welland vibrated to dissolve;
10. OD values were determined at 490 nM.
1. Calculation of Relative Inhibition Ratio The inhibition ratio of a compound on cell growth=(PC−n)/(PC−NC)×100%
IC50: Concentration of a compound where inhibition ratio was 50%. IC50 values were fitted with Origin7.5.

Row | Compound | IC50 (A431 cells) | Growth Inhibition Ratio (%) (A431 cells; compound 1 μM, 68 h incubation) | GI50 (Sk-Br-3 cells) | IC50 (Fadu cells) | IC50 (AsPC-1 cells) | inhibition at 1 µM (A431 cells; compound 1 μM, 68 h incubation)
1 | C#Cc1cccc(Nc2c(C#N)cnc3cc(OC4CCOC4)c(NC(=O)/C=C/CN(C)C)cc23)c1 (centres unmarked) [Example 5, (E)-N-(3-CYANO-4-(3-ETHYNYLPHENYLAMINO)-7-(TETRAHYDROFURAN-3-YL-OXY)QUINOLIN-6-YL)-4-(DIMETHYLAMINO)-BUT-2-ENAMIDE] | 24 nM | 85% | 24 nM | – | – | –
2 | C#Cc1cccc(Nc2c(C#N)cnc3cc(O[C@H]4CCOC4)c(NC(=O)/C=C/CN4CCCCC4)cc23)c1 [Example 144, (S,E)-N-(3-CYANO-4-(3-ETHYNYLPHENYLAMINO)-7-(TETRAHYDROFURAN-3-YL-OXY)QUINOLIN-6-YL)-4-(PIPERIDIN-1-YL)-BUT-2-ENAMIDE] | 26 nM | – | 202 nM | 103 nM | – | –
3 | Cc1ccc(COc2ccc(Nc3c(C#N)cnc4cc(OC5CCOC5)c(NC(=O)/C=C/CN(C)C)cc34)cc2Cl)cc1 (centres unmarked) [Example 19, (E)-N-(4-(4-(4-METHYLBENZYLOXY)-3-CHLOROPHENYLAMINO)-3-CYANO-7-(TETRAHYDROFURAN-3-YL-OXY)QUINOLIN-6-YL)-4-(DIMETHYLAMINO)-BUT-2-ENAMIDE] | 390 nM | – | 63 nM | – | 621 nM | –
4 | CN(C)C/C=C/C(=O)Nc1cc2c(Nc3ccc(OCc4ccccn4)c(Cl)c3)c(C#N)cnc2cc1OC1CCOC1 (centres unmarked) [Example 21, (E)-N-(4-(3-CHLORO-4-(PYRIDIN-2-YL-METHOXY)PHENYLAMINO)-3-CYANO-7-(TETRAHYDROFURAN-3-YL-OXY)QUINOLIN-6-YL)-4-(DIMETHYLAMINO)-BUT-2-ENAMIDE] | 81 nM | – | 4.1 nM | – | – | –
5 | C#Cc1cccc(Nc2c(C#N)cnc3cc(O[C@H]4CCOC4)c(NC(=O)/C=C/CN4CCOCC4)cc23)c1 [Example 145, (S,E)-N-(3-CYANO-4-(3-ETHYNYLPHENYLAMINO)-7-(TETRAHYDROFURAN-3-YL-OXY)QUINOLIN-6-YL)-4-(MORPHOLIN-4-YL)-BUT-2-ENAMIDE] | 71 nM | – | 831 nM | 194 nM | – | –
6 | C#Cc1cccc(Nc2c(C#N)cnc3cc(O[C@@H]4CCOC4)c(NC(=O)/C=C/CN(C)C)cc23)c1 [Example 141, (R,E)-N-(3-CYANO-4-(3-ETHYNYLPHENYLAMINO)-7-(TETRAHYDROFURAN-3-YL-OXY)QUINOLIN-6-YL)-4-(DIMETHYLAMINO)-BUT-2-ENAMIDE] | 50 nM | – | 39 nM | – | – | 80%
7 | C#Cc1cccc(Nc2c(C#N)cnc3cc(O[C@H]4CCOC4)c(NC(=O)/C=C/CNC(C)(C)C)cc23)c1 [Example 146, (S,E)-N-(3-CYANO-4-(3-ETHYNYLPHENYLAMINO)-7-(TETRAHYDROFURAN-3-YL-OXY)QUINOLIN-6-YL)-4-(TERT-BUTYLAIMINO)-BUT-2-ENAMIDE] | 53 nM | – | 823 nM | 200 nM | – | –
8 | C#Cc1cccc(Nc2c(C#N)cnc3cc(O[C@H]4CCOC4)c(NC(=O)/C=C/CN(C)C)cc23)c1 [Example 140, (S,E)-N-(3-CYANO-4-(3-ETHYNYLPHENYLAMINO)-7-(TETRAHYDROFURAN-3-YL-OXY)QUINOLIN-6-YL)-4-(DIMETHYLAMINO)-BUT-2-ENAMIDE] | 26 nM | – | 22 nM | – | – | 87%
